Experimental data reported in ChEMBL document CHEMBL6115029, “Discovery of Daraxonrasib (RMC-6236), a Potent and Orally Bioavailable RAS(ON) Multi-selective, Noncovalent Tri-complex Inhibitor for the Treatment of Patients with Multiple RAS-Addicted Cancers” (J Med Chem, 2025).
pEC50, pIC50: −log10 of the molar value.

What was measured:
[1] = Inhibition of 6His-tagged wildtype KRAS (1 to 169 residues)/GST-tagged GMPPNP-bound BRAF RBD (155 to 229 reisudes)/Cyclophilin A (unknown origin) tri-complex protein-protein interaction incubated for 3 hrs by TR-FERT based disruption assay; design: species or system Homo sapiens
[2] = Clearance in female BALB/c mouse blood at 1 mg/kg, iv measured after 24 hrs by LC-MS/MS analysis; format: ADME, organism-based
[3] = Tmax in female BALB/c mouse at 10 mg/kg, po measured after 24 hrs by LC-MS/MS analysis; format: ADME, organism-based; conditions: in vivo
[4] = Inhibition of ERK1/2 phosphorylation in human ASPC1 cells harboring KRAS G12D mutant incubated for 4 hrs by AlphaLISA assay; format: cell-based; conditions: ASPC1, 4 h
[5] = Clearance in male Sprague-Dawley rat at 1 mg/kg, iv measured after 24 hrs by LC-MS/MS analysis; format: ADME, organism-based; conditions: in vivo

pIC50 [1]: 7.04
clearance [2]: 8.33 mL/min/kg
Tmax [3]: 1.7 h
pEC50 [4]: 8.44
clearance [5]: 21.7 mL/min/kg
SMILES: CCn1c(-c2cc(N3CCN(C)CC3)cnc2[C@H](C)OC)c2c3cc(ccc31)-c1csc(n1)C[C@H](NC(=O)[C@H]1C[C@@H]1C)C(=O)N1CCC[C@H](N1)C(=O)OCC(C)(C)C2
